Source: patent publication US20020183327A1, “Bicyclic imidazo-3-yl-amine derivatives substituted on the 6-membered ring” (GRUENENTHAL GMBH., priority 1999, published 2002)

Each compound was assayed on α2-subtype of the human α-adrenergic receptor (assay: SPA assay, affinity for the α2-subtype of the human α-adrenergic receptor). Conditions: at a concentration of 10 μM.
Type: binding
Method: The affinity for the α2-subtype of the human α-adrenergic receptor was determined by means of a SPA assay conventionally used for high throughput screening as described in John P. Devlin, High Throughput Screening, Marcel Dekker Inc. 1997, pp. 307 to 316. This literature is introduced here as a reference and thus forms part of the disclosure. At a concentration of 10 μM, the following affinities for the listed examples were determined: […]

α2-affinity, 10 μM | SMILES
75% | [C-]#[N+]CCCCCCNc1c(-c2ccc(OC)c(OC)c2)nc2cc(C)ccn12 [Example 24, [2-(3,4-dimethoxyphenyl)-7-methylimidazo[1,2-a]pyridin-3-yl]-(6-isocyanohexyl)-amine]
100% | Cc1nc2c(OCc3ccccc3)cccn2c1NC(C)(C)CC(C)(C)C [Example 29, (8-benzyloxy-2-methylimidazo[1,2-a]pyridin-3-yl)-(1,1,3,3-tetramethylbutyl)-amine]
75% | CC(=O)N(c1c(C2CCCCC2)nc2c(OCc3ccccc3)cccn12)C1CCCCC1 [Example 35, N-(8-benzyloxy-2-cyclohexylimidazo[1,2-a]pyridin-3-yl)-N-cyclohexyl-acetamide]
70% | FC(F)(F)c1ccc2nc(-c3ccco3)c(NC3CCCCC3)n2c1 [Example 26, cyclohexyl-(2-furan-2-yl-6-trifluoromethylimidazo[1,2-a]pyridin-3-yl)-amine]
51% | [C-]#[N+]CCCCCCNc1c(-c2ccccc2OC)nc2ccc(C)cn12 [Example 25, (6-isocyanohexyl)-[2-(2-methoxyphenyl)-6-methyl-imidazo[1,2-a]pyridin-3-yl]-amine]
65% | Cc1ccc2nc(C)c(NC(C)(C)CC(C)(C)C)n2c1 [Example 17, (2,6-dimethylimidazo[1,2-a]pyridin-3-yl)-(1,1,3,3-tetramethylbutyl)-amine]
61% | CCCCNc1c(C2CCCCC2)nc2cccc(CCC)n12 [Example 32, Butyl-(2-cyclohexyl-5-propylimidazo[1,2-a]pyridin-3-yl)-amine]
61% | COC(=O)CNc1c(C)nc2c(OCc3ccccc3)cccn12 [Example 31, (8-benzyloxy-2-methylimidazo[1,2-a]pyridin-3-ylamino)-acetic acid methyl ester]
60% | COC(=O)CNc1c(C2CCCCC2)nc2c(OCc3ccccc3)cccn12 [Example 30, (8-benzyloxy-2-cyclohexylimidazo[1,2-a]pyridin-3-ylamino)-acetic acid methyl ester]
97% | Cc1cc(C)n2c(NC(C)(C)CC(C)(C)C)c(C)nc2c1 [Example 23, (1,1,3,3-tetramethylbutyl)-(2,5,7-trimethylimidazo[1,2-a]pyridin-3-yl)-amine]
109% | Cc1ccn2c(NC(C)(C)CC(C)(C)C)c(C)nc2c1 [Example 21, (2,7-dimethylimidazo[1,2-a]pyridin-3-yl)-(1,1,3,3-tetramethylbutyl)-amine]
85% | [C-]#[N+]CCCCCCNc1c(-c2ccc(OC)c(OC)c2)nc2ccc(C)cn12 [Example 20, [2-(3,4-dimethoxyphenyl)-6-methylimidazo[1,2-a]pyridin-3-yl]-(6-isocyanohexyl)-amine]
73% | CC(=O)N(c1c(-c2ccco2)nc2c(Cl)cc(Cl)cn12)C1CCCCC1 [Example 33, N-cylcohexyl-N-(6,8-dichloro-2-furan-2-yl-imidazo[1,2-a]pyridin-3-yl)-acetamide]
67% | [C-]#[N+]CCCCCCNc1c(C2CCCCC2)nc2cccc(C)n12 [Example 16]
74% | Cc1ccn2c(NC3CCCCC3)c(C)nc2c1 [Example 18, cyclohexyl-(2,7-dimethylimidazo[1,2-a]pyridin-3-yl)-amine]
72% | CC(=O)N(c1c(-c2ccco2)nc2ccc(C(F)(F)F)cn12)C1CCCCC1 [Example 34, N-cylcohexyl-N-(2-furan-2-yl-6-trifluoromethylimidazo[1,2-a]pyridin-3-yl)-acetamide]
69% | Cc1nc2c(C)cccn2c1NC(C)(C)CC(C)(C)C [Example 22, (2,8-dimethyl-imidazo[1,2-a]pyridin-3-yl)-(1,1,3,3-tetramethylbutyl)-amine]
81% | Cc1cc(C)n2c(NC3CCCCC3)c(C)nc2c1 [Example 19, cyclohexyl-(2,5,7-trimethylimidazo[1,2-a]pyridin-3-yl)-amine]
